According to DBAASP:
Values after ≈ are worked out from the molar mass of the structure shown. Values belong to the compound of their own block, whether it stands above or below them.

Experiments:
Assay in all cases: ≥ marks a high value that may be exact or a test limit, other limits are often not marked, values filed in µg/mL are converted to µM
[1] = test system: Staphylococcus epidermidis ATCC 12228
[2] = test system: Escherichia coli ATCC 25922
[3] = test system: Vibrio cholerae O1 Inaba
[4] = test system: Shigella sonnei ATCC 11060
[5] = test system: Enterococcus faecalis ATCC 29212
[6] = test system: Listeria monocytogenes 10403s
[7] = test system: Acinetobacter baumannii
[8] = test system: Staphylococcus aureus ATCC 25923
[9] = test system: Pseudomonas aeruginosa ATCC 27853
[10] = test system: Escherichia coli O157:H7
[11] = test system: Bacillus cereus ATCC 11778
[12] = test system: Salmonella enterica subsp. enterica serovar Typhimurium ATCC 13311
[13] = test system: Bacillus subtilis ATCC 6051
[14] = test system: Staphylococcus aureus ATCC 43300
[15] = test system: Bacillus megaterium ATCC 13632
[16] = test system: Candida tropicalis ATCC 750
[17] = test system: Acinetobacter baumannii ATCC 19606
[18] = test system: Candida albicans ATCC 90028
[19] = test system: Streptococcus pneumoniae ATCC 700677
[20] = test system: Klebsiella pneumoniae ATCC 700603
[21] = test system: Staphylococcus aureus ATCC 29213
[22] = test system: Staphylococcus aureus VRSA1
[23] = test system: Cryptococcus neoformans ATCC 208821
[24] = test system: Enterococcus faecium ATCC 35667
[25] = test system: Vibrio anguillarum
[26] = test system: Pseudomonas aeruginosa Z61
[27] = test system: Staphylococcus epidermidis C621
[28] = test system: Salmonella enterica subsp. enterica serovar Typhimurium ATCC 14028s
[29] = test system: Pseudomonas aeruginosa K799
[30] = test system: Aeromonas salmonicida
[31] = test system: Salmonella enterica serovar typhimurium MS7953s
[32] = test system: Candida krusei ATCC 6258
[33] = test system: Pseudomonas aeruginosa ATCC 27312
[34] = test system: Serratia marcescens ATCC 14756
[35] = test system: Klebsiella pneumoniae ATCC 10031
[36] = test system: Mannheimia haemolytica 82-25
[37] = test system: Escherichia coli ATCC 12795
[38] = test system: Staphylococcus aureus WKZ2
[39] = test system: Listeria monocytogenes
[40] = test system: Salmonella enterica subsp. enterica serovar Enteritidis 706 RIVM
[41] = test system: Escherichia coli ATCC 35218
[42] = test system: Salmonella enterica subsp. enterica serovar Typhimurium ATCC 14028
[43] = test system: Pseudomonas aeruginosa RP73

Structure (SMILES): CC[C@H](C)[C@H](N)C(=O)N[C@@H](Cc1ccccc1)C(=O)N[C@@H](Cc1c[nH]c2ccccc12)C(=O)N[C@@H](CC(C)C)C(=O)N[C@@H](Cc1ccccc1)C(=O)N[C@@H](CCCN=C(N)N)C(=O)NCC(=O)N[C@@H](CCCCN)C(=O)N[C@@H](C)C(=O)N[C@@H](CC(=O)O)C(=O)N[C@H](C(=O)N[C@@H](C)C(=O)N[C@@H](CC(C)C)C(N)=O)C(C)C [IFWLFRGKADVAL]
MIC [13]: ≥ 41.7 µM
MIC [14]: > 83.3 µM
MIC [15]: 29.5 µM (≈ 45.2 µg/mL)
MIC [2]: > 167 µM
MIC [16]: ≥ 83.3 µM
MIC [17]: > 167 µM
MIC [18]: ≥ 83.3 µM
MIC [19]: ≥ 83.3 µM
MIC [20]: > 167 µM
MIC [21]: > 83.3 µM
MIC [22]: ≥ 83.3 µM
MIC [23]: 14.7 µM (≈ 22.6 µg/mL)
MIC [9]: > 167 µM
MIC [24]: ≥ 41.7 µM

Structure (SMILES): C[C@H](N)C(=O)N[C@@H](CC(=O)O)C(=O)N[C@@H](C)C(=O)N[C@@H](CC(=O)O)C(=O)N[C@@H](CC(=O)O)C(=O)N[C@@H](CC(=O)O)C(=O)N[C@@H](CC(=O)O)C(=O)N[C@@H](CC(=O)O)C(=O)N[C@@H](CCCCN)C(=O)O [ADADDDDDK]
MIC [32]: ≥ 5110 µM
MIC [5]: 1800 µM (≈ 1760 µg/mL)
MIC [33]: ≥ 1500 µM
MIC [34]: ≥ 1500 µM
MIC [21]: 1800 µM (≈ 1760 µg/mL)
MIC [35]: ≥ 900 µM
MIC [36]: ≥ 230 µM
MIC [37]: ≥ 850 µM

Second part, led by results:

MIC [1]: 1.96 µM (≈ 3.91 µg/mL)
MIC [2]: 7.82 µM (≈ 15.6 µg/mL)
MIC [4]: 1.96 µM (≈ 3.91 µg/mL)
MIC [5]: 15.6 µM (≈ 31.2 µg/mL)
MIC [6]: 0.976 µM (≈ 1.95 µg/mL)
MIC [7]: 1.96 µM (≈ 3.91 µg/mL)
MIC [8]: 3.91 µM (≈ 7.81 µg/mL)
MIC [9]: 3.91 µM (≈ 7.81 µg/mL)
MIC [10]: 7.82 µM (≈ 15.6 µg/mL)
MIC [11]: 1.96 µM (≈ 3.91 µg/mL)
MIC [12]: 0.976 µM (≈ 1.95 µg/mL)
Structure (SMILES): CC[C@H](C)[C@H](NC(=O)[C@H](CCCN=C(N)N)NC(=O)[C@H](CCCCN)NC(=O)[C@H](C)NC(=O)[C@@H](NC(=O)[C@@H](N)CCCCN)[C@@H](C)CC)C(=O)N[C@@H](Cc1c[nH]c2ccccc12)C(=O)N[C@@H](CCCCN)C(=O)N[C@H](C(=O)N[C@@H](CC(C)C)C(=O)N[C@@H](CCCN=C(N)N)C(=O)N[C@@H](CCCN=C(N)N)C(=O)N[C@@H](CCCN=C(N)N)C(=O)N[C@@H](CC(C)C)C(=O)N[C@@H](Cc1ccccc1)C(N)=O)[C@@H](C)CC [KIAKRIWKILRRRLF]
MIC [3]: 1.96 µM (≈ 3.91 µg/mL)

MIC [25]: 23.7 µM (≈ 64 µg/mL)
MIC [26]: 23.7 µM (≈ 64 µg/mL)
MIC [27]: 23.7 µM (≈ 64 µg/mL)
MIC [28]: 23.7 µM (≈ 64 µg/mL)
MIC [29]: 23.7 µM (≈ 64 µg/mL)
MIC [30]: 2.96 µM (≈ 8 µg/mL)
MIC [31]: 0.739 µM (≈ 2 µg/mL)
Structure (SMILES): CC[C@H](C)[C@H](NC(=O)[C@@H](N)CO)C(=O)NCC(=O)N[C@@H](CO)C(=O)N[C@@H](C)C(=O)N[C@@H](Cc1ccccc1)C(=O)N[C@@H](CCCCN)C(=O)N[C@@H](CCCCN)C(=O)N[C@@H](C)C(=O)N[C@@H](C)C(=O)N[C@@H](Cc1cnc[nH]1)C(=O)N[C@H](C(=O)NCC(=O)N[C@@H](CCCCN)C(=O)N[C@@H](Cc1cnc[nH]1)C(=O)N[C@H](C(=O)NCC(=O)N[C@@H](CCCCN)C(=O)N[C@@H](C)C(=O)N[C@@H](C)C(=O)N[C@@H](CC(C)C)C(=O)N[C@H](C(=O)N[C@@H](Cc1cnc[nH]1)C(=O)N[C@@H](Cc1ccc(O)cc1)C(=O)N[C@@H](CC(C)C)C(=O)N[C@@H](CC(N)=O)C(=O)O)[C@@H](C)O)C(C)C)C(C)C [SIGSAFKKAAHVGKHVGKAALTHYLN]

MIC [38]: 25 µM (≈ 77.8 µg/mL)
MIC [2]: 25 µM (≈ 77.8 µg/mL)
MIC [39]: ≥ 50 µM
MIC [5]: 50 µM (≈ 156 µg/mL)
MIC [40]: ≥ 50 µM
MIC [41]: 25 µM (≈ 77.8 µg/mL)
MIC [42]: > 12.5 µM
MIC [43]: 12.5 µM (≈ 38.9 µg/mL)
Structure (SMILES): CC[C@H](C)[C@H](NC(=O)[C@@H]1CCCN1)C(=O)N[C@@H](CCSC)C(=O)N[C@@H](Cc1ccc(O)cc1)C(=O)N[C@@H](CCCCN)C(=O)N[C@H](C(=O)N1CCC[C@H]1C(=O)N[C@@H](CC(C)C)C(=O)N[C@H](C(=O)N[C@@H](CCCN=C(N)N)C(=O)N[C@@H](CCCCN)C(=O)N[C@@H](CCCCN)C(=O)N[C@@H](CO)C(=O)N[C@@H](CC(C)C)C(=O)N[C@@H](CCCN=C(N)N)C(=O)N[C@@H](CCCN=C(N)N)C(=O)N[C@H](C(=O)N[C@@H](CC(C)C)C(=O)N[C@@H](CO)C(=O)N[C@@H](CCC(=O)O)C(=O)N[C@@H](CCCN=C(N)N)C(=O)NCC(=O)N[C@@H](CC(C)C)C(=O)N[C@@H](CC(C)C)C(=O)N[C@@H](CCCCN)C(=O)N[C@@H](CC(=O)O)C(=O)O)[C@@H](C)O)[C@@H](C)CC)C(C)C [PIMYKVPLIRKKSLRRTLSERGLLKD]
